The values that follow come from patent US20060074032A1 (Academic Pharmaceuticals, Inc., priority 2000, published 2006).

The test system of one assay is rat ileum. Put plainly: Rat ileum GI contractility (isometric muscle contraction). Conditions: for Deflection Magnitude, percentage change from control / Slow Wave Amplitude, percentage change from control / Slow Wave Frequency, percentage change from control: n = 5. The procedure:
(§1) The ileum was harvested and placed in warmed (37° C.) Krebs […] buffer and oxygenated (95% O2 and 5% CO2). Segments approximately 4.5 cm long were placed on a transducer (Gilson Instruments) and a preload of 2 gm was applied. The tissue was placed in a chamber and bathed in Tyrode's solution (37.5° C.) and gassed with 95% O2 and 5% CO2. Muscle contractions were measured isometrically. After stable contractions were obtained, a study compound was added to the tissue bath and recordings made until a new steady state of contraction was obtained. Following a washout period, contractions were recorded during a new steady state period, then the procedure repeated with at a second dose of the drug being evaluated. Changes in contraction magnitude were recorded as the percentage change from baseline. This procedure is a modification of the technique described by Van Nueten and associates (Van Nueten, et al., Inhibition of dopamine receptors in the stomach: an explanation of the gastrokinetic properties of domperidone. Life Sciences 1978, 23:453-458).

A further assay deals with rat colon. Put plainly: Rat colon GI contractility (deflection magnitude). The following applies: n = 5 per group. The procedure:
as §1, with “23:453-458). […] A segment of rat colon was suspended in a constant temperature bath as described above, and the baseline parameters measured oxygenated Tyrode's solution without erythromycin or chiral isolates.” for “23:453-458).”

The next assay has as its target T1, IKs currents (Homo sapiens, UniProt P51787).
T1 construct: expressed in transfected cells; host or cells: Xenopus oocytes injected with cRNA (pSP64 poly(A) constructs)
Conditions: cited from earlier work.

Read-outs that look alike come from different tables or passages of the source.

T1 sequence (P51787 whole entry): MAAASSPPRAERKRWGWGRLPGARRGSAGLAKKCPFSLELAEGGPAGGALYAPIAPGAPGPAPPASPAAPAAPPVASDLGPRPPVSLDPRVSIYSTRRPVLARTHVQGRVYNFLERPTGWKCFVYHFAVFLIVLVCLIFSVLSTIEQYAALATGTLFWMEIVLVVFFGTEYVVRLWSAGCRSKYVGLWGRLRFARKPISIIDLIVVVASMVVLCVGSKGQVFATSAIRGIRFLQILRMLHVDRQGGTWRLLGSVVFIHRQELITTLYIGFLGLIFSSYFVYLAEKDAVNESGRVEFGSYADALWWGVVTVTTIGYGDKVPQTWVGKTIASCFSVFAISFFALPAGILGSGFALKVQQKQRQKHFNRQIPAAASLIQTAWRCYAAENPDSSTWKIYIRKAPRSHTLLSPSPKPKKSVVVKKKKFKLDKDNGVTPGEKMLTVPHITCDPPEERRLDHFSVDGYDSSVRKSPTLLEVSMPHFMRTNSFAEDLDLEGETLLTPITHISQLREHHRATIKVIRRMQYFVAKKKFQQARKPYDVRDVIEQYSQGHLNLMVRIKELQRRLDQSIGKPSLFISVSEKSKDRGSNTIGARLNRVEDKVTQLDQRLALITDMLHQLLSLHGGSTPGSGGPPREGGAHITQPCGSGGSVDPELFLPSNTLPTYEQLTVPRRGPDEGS

On to Erythromycin, for which the “Effect on slow contractile wave amplitude, slow wave frequency and magnitude of deflection, in words” value in the assay on rat ileum (10^−7 M to 10^−5 M) is “dose-related increase”. The “Deflection Magnitude, percentage change from control” value in the assay on rat ileum (erythromycin 10^−5 M) is listed as 33%; with rat ileum (erythromycin 10^−6 M) it was 22%; in the assay with rat ileum (erythromycin 10^−7 M), 14%. The “Slow Wave Amplitude, percentage change from control” value in the assay on rat ileum (erythromycin 10^−5 M) came out at 17%; in the assay with rat ileum (erythromycin 10^−6 M), 15%; with rat ileum (erythromycin 10^−7 M), 12%. Also, the “Slow Wave Frequency, percentage change from control” value with rat ileum (erythromycin 10^−5 M) worked out at 27%; in the assay with rat ileum (erythromycin 10^−6 M), 21%; with rat ileum (erythromycin 10^−7 M), 14%. The “Percent Change in Deflection Magnitude, change from control” value in the assay on rat colon (10^−5 M) is recorded as 95%; in the assay on rat colon (10^−6 M) it was 70%; with rat colon (10^−7 M), 33%.

For the molecule `C=C[C@H]1C[N@@]2CC[C@H]1C[C@@H]2[C@@H](O)c1ccnc2ccc(OC)cc12` [quinidine], the “Reduction of IKs currents” value is given as 52% on IKs currents (quinidine 10^−4 M) and 14% on IKs currents (quinidine 10^−6 M).
